Entries after “also recorded” stand apart in the source; their conditions may differ. Read-outs that look alike come from different tables or passages of the source. Numbered stars: 1 amine (or outer) side, 2 acyl side, 3 side chain; on linkers, the order of the positions; unused ones are H or OH. Side chains are listed from the residue outwards. Peptide text beside a SMILES is read from it. * marks the point of attachment. X1 = C[C@H](NC(=O)[C@@H]1CCCN1C(=O)[C@@H](N)CSC1CC(=O)N(CCC(=O)*)C1=O)C(=O)N[C@@H](CCCCN)C(=O)O; γGlu = O=C(O)[C@H](CCC(=O)[*:2])N[*:1]; Fumaroyl = O=C(O)/C=C/C(=O)*; Lauroyl = CCCCCCCCCCCC(=O)*; AEEA = NCCOCCOCC(=O)O
Columns and labels:
male SD rats = conditions: one animal per row, observed 48 hours
mouse ETB receptor = target: T1, mouse ETB receptor (Mus musculus, UniProt P48302); assay: Determination of EC50s of polypeptides against mouse ETB receptor; format: cell-based; conditions: Table 9, mouse ETB receptor; read-out: DETAR Agonist Activity EC50
T1 construct: expressed in transfected cells
T1 sequence (P48302 27-442): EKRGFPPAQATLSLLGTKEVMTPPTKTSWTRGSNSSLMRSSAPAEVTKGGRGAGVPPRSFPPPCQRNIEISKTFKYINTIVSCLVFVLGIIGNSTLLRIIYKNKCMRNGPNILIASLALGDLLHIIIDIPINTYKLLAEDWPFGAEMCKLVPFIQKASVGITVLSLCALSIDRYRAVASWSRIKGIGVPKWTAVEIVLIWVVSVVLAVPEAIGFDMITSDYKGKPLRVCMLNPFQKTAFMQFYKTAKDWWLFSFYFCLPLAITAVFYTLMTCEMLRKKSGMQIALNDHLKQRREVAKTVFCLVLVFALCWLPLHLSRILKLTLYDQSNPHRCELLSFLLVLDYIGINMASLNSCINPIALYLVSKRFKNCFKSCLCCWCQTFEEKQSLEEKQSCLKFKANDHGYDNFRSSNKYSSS

Compound	Observations of Animal Status (male SD rats; subcutaneous 120 µg/Kg)	Observations of Animal Status (male SD rats; subcutaneous 240 µg/Kg)	Observations of Animal Status (male SD rats; subcutaneous 480 µg/Kg)	Observations of Animal Status (male SD rats; subcutaneous 960 µg/Kg)	EC50 (mouse ETB receptor)
CCCCCCCCCCCC(=O)N[C@@H](CCC(=O)NCCOCCOCC(=O)NCCCC[C@H](NC(=O)[C@H](Cc1c[nH]cn1)NC(=O)[C@H](C)NC(=O)[C@H](Cc1ccccc1)NC(=O)[C@H](Cc1ccc(O)cc1)NC(=O)[C@@H](NC(=O)[C@H](C)NC(=O)[C@H](CCC(=O)O)NC(=O)[C@H](CCC(=O)O)NC(=O)[C@H](CC(=O)O)NC(=O)/C=C/C(=O)O)C(C)C)C(=O)N[C@@H](CC(=O)O)C(=O)N[C@H](C(=O)N[C@H](C(=O)N[C@@H](Cc1c[nH]c2ccccc12)C(=O)O)[C@@H](C)CC)C(C)C)C(=O)O [BX229-Na] (Fumaroyl-DEEAVYFAHK([AEEA-γGlu-Lauroyl])DVIW-OH)	No obvious reaction observed within 24 hours	No obvious abnormal reaction observed within 48 hours	No obvious abnormal reaction observed within 48 hours	No significant reaction within 2 hours, died at 2 hours and 10 minutes; also recorded: No obvious abnormal reaction observed within 48 hours	9.05 nM
CC[C@H](C)[C@H](NC(=O)[C@H](CC(=O)O)NC(=O)[C@H](CCCCNC(=O)COCCOCCNC(=O)CCN1C(=O)CC(SC[C@H](N)C(=O)N2CCC[C@H]2C(=O)N[C@@H](C)C(=O)N[C@@H](CCCCN)C(=O)O)C1=O)NC(=O)[C@H](Cc1c[nH]cn1)NC(=O)[C@H](C)NC(=O)[C@H](Cc1ccccc1)NC(=O)[C@H](Cc1ccc(O)cc1)NC(=O)[C@@H](NC(=O)[C@H](C)NC(=O)[C@H](CCC(=O)O)NC(=O)[C@H](CCC(=O)O)NC(=O)[C@H](CC(=O)O)NC(=O)/C=C/C(=O)O)C(C)C)C(=O)N[C@H](C(=O)N[C@@H](Cc1c[nH]c2ccccc12)C(=O)O)[C@@H](C)CC (stereo partly drawn) [BX-95] (Fumaroyl-DEEAVYFAHK([AEEA-X1])DIIW-OH)	–	–	–	–	22.1 nM

— patent EP4702986A1, “POLYPEPTIDE AND USE THEREOF” (Biocells (Beijing) Biotech Co., Ltd., priority 2023, dated 2024)
